Source: paper PMC8085067, “The dimer-monomer equilibrium of SARS-CoV-2 main protease is affected by small molecule inhibitors” (Scientific Reports, 2021)
Entries after “also recorded” stand apart in the source; their conditions may differ.

Target: SARS-CoV-2 M^pro (Severe acute respiratory syndrome coronavirus 2, UniProt P0DTD1)
Assay: M^pro activity assay and inhibition (fluorogenic substrate)
Assay type: biochemical
Conditions: for inhibition of M^pro catalytic activity (in words) / slope m of the fluorescence inhibition curve: inhibitor 30 μM; for inhibition of M^pro catalytic activity (in words): fluorescence assay; for slope m of the fluorescence inhibition curve: ≈0.2 μM M^pro, 40 μM substrate, 30 °C, 20 min preincubation, linear fit up to 30 min

| SMILES | inhibition of M^pro catalytic activity (in words) | slope m of the fluorescence inhibition curve | Hill slope n (Hill equation fit of percent inhibition) | IC50 (Hill equation fit of percent inhibition vs inhibitor concentration) [µM] |
| --- | --- | --- | --- | --- |
| OCCN(CCOc1c(F)c(F)c(-c2nc(-c3ccncc3)no2)c(F)c1F)CCOc1c(F)c(F)c(-c2nc(-c3ccncc3)no2)c(F)c1F [Inhibitor 3] | week | 23±3 RFU/min | – | – |
| Fc1c(F)c(N2CCOCCOCCOCCOCCOCC2)c(F)c(F)c1-c1nc(-c2ccccc2)no1 [Inhibitor 4, 16-(2,3,5,6-tetrafluoro-4-(3-phenyl-1,2,4-oxadiazol-5-yl)phenyl)-1,4,7,10,13-pentaoxa-16-azacyclooctadecane] | irreversible inactivation of the enzyme; also recorded: most effective among the seven inhibitors | 0±6 RFU/min and ≈ 0 RFU/min | – | – |
| CCNC(=O)c1noc(-c2c(F)c(F)c(NCCN(CCNc3c(F)c(F)c(-c4nc(C(=O)NCC)no4)c(F)c3F)CCNc3c(F)c(F)c(-c4nc(C(=O)NCC)no4)c(F)c3F)c(F)c2F)n1 [Inhibitor 7, 5,5’,5”-(((nitrilotris(ethane-2,1-diyl))tris(azanediyl))tris(2,3,5,6-tetrafluorobenzene-4,1-diyl))tris(N-ethyl-1,2,4-oxadiazole-3-carboxamide)] | irreversible inactivation of the enzyme; also recorded: promising inhibition effect | 1±3 RFU/min and ≈ 1 RFU/min | 3±1 | 15 ± 2 |
